From ChEMBL document CHEMBL1121676, “1980 Award in Medicinal Chemistry: Medicinal chemistry and dynamic structure-activity analysis in the discovery of drugs acting at histamine H2 receptors” (1981)
The source made the active and inactive calls. The calls are words filed in the database; no cut-off is given here.

tested on: Rattus norvegicus; assay: Tested for inhibition of histamine-stimulated gastric acid secretion in the lumen-perfused anesthetized rat expressed as intravenous dose which reduces a near maximal secretion to 50%; detectable; format: functional, organism-based; details: Stomach

SMILES	ID50
CSC(=N)NCCc1c[nH]cn1	detectable
CC(=N)NCCc1c[nH]cn1	detectable
N=C(N)SCCCc1c[nH]cn1	inactive

tested on: Rattus norvegicus; assay: Tested for inhibition of histamine-stimulated gastric acid secretion in the lumen-perfused anesthetized rat expressed as intravenous dose which reduces a near maximal secretion to 50%; format: functional; details: Stomach, read-out: ID50 (the source's name)

SMILES	ED50 [µmol/kg]
CSC(=N)NCCCc1c[nH]cn1	100
N=C(N)NCCCc1c[nH]cn1	100
CC(=N)NCCCc1c[nH]cn1	100
N=C(N)SCCc1c[nH]cn1 [IMETIT]	200
N=C(N)NCCc1c[nH]cn1	> 500
